# Measured values taken from article PMC11042424, “Development of a First-in-Class RIPK1 Degrader to Enhance Antitumor Immunity” (Research Square, 2024).
# Assays:
# [1] = molecular target: T1, GST-tagged human RIPK1 (Homo sapiens, UniProt Q13546); assay: TR-FRET biochemical binding assay for RIPK1
# T1 construct: purchased SignalChem R07–11G-10
# T1 sequence (Q13546 1-327 limits assumed): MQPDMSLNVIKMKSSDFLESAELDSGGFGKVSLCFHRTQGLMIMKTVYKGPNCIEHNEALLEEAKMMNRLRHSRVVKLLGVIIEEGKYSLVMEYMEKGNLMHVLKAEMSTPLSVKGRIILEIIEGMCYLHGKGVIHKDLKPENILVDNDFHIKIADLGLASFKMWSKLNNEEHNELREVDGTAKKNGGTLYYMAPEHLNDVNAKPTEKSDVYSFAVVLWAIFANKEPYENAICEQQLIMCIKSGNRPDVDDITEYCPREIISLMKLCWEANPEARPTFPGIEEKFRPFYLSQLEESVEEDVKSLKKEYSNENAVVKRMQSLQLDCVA
# Description: Figure 2 LD4172, a RIPK1 PROTAC, induces potent and highly specific degradation of RIPK1 in a panel of cell lines. A, Chemical structures of RIPK1 PROTAC, LD4172, and its negative control, LD4172-NC. […] B, Quantification of RIPK1 levels in both Jurkat and B16F10 cells treated with LD4172 at indicated concentrations for 24 h, followed by Western blotting. C, DC50 and Dmax of LD4172 in various human and mouse cell lines. DC50, the drug concentration causing 50% protein degradation; Dmax, the maximum level of protein degradation. D, RIPK1 degradation kinetics induced by LD4172 treatment (1 μM) and resynthesis kinetics upon washout of LD4172 in both Jurkat and B16F10 cells. […] G, Time-resolved fluorescence resonance energy transfer (TR-FRET) based biochemical binding assay for RIPK1. […] In total, ~10,000 proteins were quantified in the proteomics experiment. […]
# A time-resolved fluorescence resonance energy transfer (TR-FRET) assay was performed to evaluate the binding of the indicated compounds and RIPK1 by competition with a BODIPY-FL labeled RIPK1 tracer (Supplementary Information, T2I-488). […] The assay mixtures were incubated at room temperature in the dark for 120 min, and the signals were collected using a BioTek Synergy H1 microplate reader to measure the fluorescence emission ratio (I520 nm/I490 nm) of each well using a 340-nm excitation filter, a 100-μs delay, and a 200-μs integration time. […]
# [2] = Stability in mouse liver S9 fractions; assay type: in vitro ADME
# [3] = molecular target: hERG channel (Homo sapiens, UniProt Q12809); assay: hERG channel inhibition assay; conditions: at 30 μM
# [4] = test system: MC38 tumors; assay: Syngeneic MC38 colon cancer model with anti-PD1; assay type: in vivo
# hERG channel, sequence (Q12809 whole entry): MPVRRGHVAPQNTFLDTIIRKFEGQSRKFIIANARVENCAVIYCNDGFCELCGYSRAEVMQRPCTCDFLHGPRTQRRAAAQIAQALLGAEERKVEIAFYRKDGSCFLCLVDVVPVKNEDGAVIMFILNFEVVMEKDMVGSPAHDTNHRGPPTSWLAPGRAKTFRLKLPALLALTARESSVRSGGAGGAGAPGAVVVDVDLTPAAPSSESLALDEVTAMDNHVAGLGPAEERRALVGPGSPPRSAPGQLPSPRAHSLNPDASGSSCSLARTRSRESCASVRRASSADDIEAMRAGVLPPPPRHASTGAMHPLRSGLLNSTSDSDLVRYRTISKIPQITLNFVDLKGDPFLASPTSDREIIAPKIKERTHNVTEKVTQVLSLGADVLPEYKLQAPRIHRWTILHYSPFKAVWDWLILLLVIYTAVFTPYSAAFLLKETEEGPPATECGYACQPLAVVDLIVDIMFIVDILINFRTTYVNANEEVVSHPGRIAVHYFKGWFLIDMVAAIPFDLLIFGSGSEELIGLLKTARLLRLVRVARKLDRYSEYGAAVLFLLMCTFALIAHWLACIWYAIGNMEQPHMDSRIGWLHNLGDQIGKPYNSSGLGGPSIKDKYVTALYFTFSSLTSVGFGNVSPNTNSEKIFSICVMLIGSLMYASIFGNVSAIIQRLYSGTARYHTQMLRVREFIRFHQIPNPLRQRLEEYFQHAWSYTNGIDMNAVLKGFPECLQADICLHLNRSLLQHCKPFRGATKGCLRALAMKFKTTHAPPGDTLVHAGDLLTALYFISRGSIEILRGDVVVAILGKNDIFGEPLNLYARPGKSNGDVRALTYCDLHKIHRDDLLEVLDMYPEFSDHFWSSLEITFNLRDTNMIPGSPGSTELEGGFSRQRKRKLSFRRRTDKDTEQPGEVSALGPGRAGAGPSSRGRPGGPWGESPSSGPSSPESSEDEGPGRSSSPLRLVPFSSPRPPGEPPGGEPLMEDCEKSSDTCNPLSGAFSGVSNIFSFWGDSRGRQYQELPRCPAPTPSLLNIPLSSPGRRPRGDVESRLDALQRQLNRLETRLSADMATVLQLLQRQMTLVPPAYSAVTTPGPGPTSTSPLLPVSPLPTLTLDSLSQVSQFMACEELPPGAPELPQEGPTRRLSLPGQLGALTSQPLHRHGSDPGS
smiles,measurement,setting,value
Cc1ncsc1-c1ccc([C@H](C)NC(=O)[C@@H]2C[C@@H](O)CN2C(=O)[C@@H](NC(=O)CCCCCCCCCCC(=O)NCCCn2cc(-c3ccc4c(c3)CCN4C(=O)Cc3cccc(OC(F)(F)F)c3)c3c(N)ncnc32)C(C)(C)C)cc1 [LD4172],IC50,"[1]; 2 hours incubation, n=3, read-out: IC50, Fig. 2G",9.6 nM
same,Ki,[1]; recombinant human RIPK1 protein,4.8 nM
same,half-life,[2],9.7 min
same,intrinsic clearance (CLint),[2],71.6 μL·min^− 1·mg^− 1 protein
same,inhibition of hERG,[3],no obvious inhibition
same,tumor response in combination with anti-PD1,[4],substantially sensitized MC38 tumors to anti-PD1 therapy
